Columns and labels:
[1] = target: T1, Adenine DNA glycosylase (Homo sapiens) (UniProt Q9UIF7); conditions: Compound Concentration 10.0 uM, Hit No;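 note: human MUTYH activity read as 594 nm fluorescence from cleavage and release of a quenched DNA duplex, coupled with APE1 for strand incision, lower signal meaning inhibition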
T1 sequence (whole entry): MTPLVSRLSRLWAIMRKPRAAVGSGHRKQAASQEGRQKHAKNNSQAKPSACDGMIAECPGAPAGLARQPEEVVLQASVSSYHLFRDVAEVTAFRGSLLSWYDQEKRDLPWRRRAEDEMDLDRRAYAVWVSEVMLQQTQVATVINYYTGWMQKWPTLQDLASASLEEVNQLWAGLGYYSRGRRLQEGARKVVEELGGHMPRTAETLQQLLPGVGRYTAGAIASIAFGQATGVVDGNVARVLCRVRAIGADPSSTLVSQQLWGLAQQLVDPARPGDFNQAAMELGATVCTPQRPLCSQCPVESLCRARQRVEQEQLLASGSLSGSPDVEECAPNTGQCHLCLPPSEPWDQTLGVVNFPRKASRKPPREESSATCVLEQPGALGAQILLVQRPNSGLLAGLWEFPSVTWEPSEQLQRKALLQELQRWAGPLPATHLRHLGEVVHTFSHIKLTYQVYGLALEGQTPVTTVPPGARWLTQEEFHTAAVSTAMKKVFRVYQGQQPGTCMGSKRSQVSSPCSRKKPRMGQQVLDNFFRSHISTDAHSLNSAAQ
Description: Inhibition of MUTYH by quantifying inhibition of MUTYH-mediated cleavage and dissociation of quenched duplex DNA oligonucleotides, measured as fluorescence at 594 nm. To generate a functional strand incision and increase turn-over this assay is coupled to APE1.

[2] = target: G/T mismatch-specific thymine DNA glycosylase (Homo sapiens) (UniProt Q13569); conditions: Compound Concentration 10.0 uM, Hit No;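 note: human TDG cleavage of quenched duplex DNA oligonucleotides coupled to APE1, strand release read as fluorescence at 594 nm, inhibition of TDG activity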
Description: Inhibition of TDG by quantifying inhibition of TDG-mediated cleavage and dissociation of quenched duplex DNA oligonucleotides, measured as fluorescence at 594 nm. To generate a functional strand incision and increase turn-over this assay is coupled to APE1.

[3] = target: Methyl-CpG-binding domain protein 4 (Homo sapiens) (UniProt O95243); conditions: Compound Concentration 10.0 uM, Hit No;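 note: MBD4 activity read as fluorescence at 594 nm from cleavage and release of a quenched duplex DNA oligonucleotide, with APE1 coupled to incise the strand and raise turnover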
Description: Inhibition of MBD4 by quantifying inhibition of MBD4-mediated cleavage and dissociation of quenched duplex DNA oligonucleotides, measured as fluorescence at 594 nm. To generate a functional strand incision and increase turn-over this assay is coupled to APE1.

[4] = target: Uracil-DNA glycosylase (Homo sapiens) (UniProt P13051); conditions: Compound Concentration 10.0 uM, Hit No;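 note: UNG excision on a quenched double-stranded DNA oligo probe, with APE1 added for strand incision and turnover, read as fluorescence at 594 nm as strands separate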
Description: Inhibition of UNG by quantifying inhibition of UNG-mediated cleavage and dissociation of quenched duplex DNA oligonucleotides, measured as fluorescence at 594 nm. To generate a functional strand incision and increase turn-over this assay is coupled to APE1.

[5] = target: N-glycosylase/DNA lyase (Homo sapiens) (UniProt O15527); conditions: Compound Concentration 10.0 uM;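 note: OGG1 cleavage of a quenched duplex DNA oligonucleotide, coupled to APE1 for strand incision, read as fluorescence at 594 nm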
Description: Inhibition of OGG1 by quantifying inhibition of OGG1-mediated cleavage and dissociation of quenched duplex DNA oligonucleotides, measured as fluorescence at 594 nm. To generate a functional strand incision and increase turn-over this assay is coupled to APE1.

[6] = target: T2, Endonuclease III-like protein 1 (Homo sapiens) (UniProt P78549); conditions: Compound Concentration 10.0 uM, Hit No;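 note: enzyme assay tracking NTHL1 cutting and release of a quenched double-stranded DNA oligo substrate, read as fluorescence at 594 nm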
T2 sequence (whole entry): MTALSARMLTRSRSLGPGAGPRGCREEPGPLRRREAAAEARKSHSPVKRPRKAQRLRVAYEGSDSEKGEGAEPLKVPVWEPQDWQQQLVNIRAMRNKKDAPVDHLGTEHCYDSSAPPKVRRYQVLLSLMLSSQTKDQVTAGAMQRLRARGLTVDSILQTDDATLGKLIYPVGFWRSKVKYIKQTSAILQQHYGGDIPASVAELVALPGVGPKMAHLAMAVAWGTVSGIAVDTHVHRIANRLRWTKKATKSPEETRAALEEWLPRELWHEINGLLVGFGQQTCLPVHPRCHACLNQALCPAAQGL
Description: Inhibition of NTHL1 by quantifying inhibition of NTHL1-mediated cleavage and dissociation of quenched duplex DNA oligonucleotides, measured as fluorescence at 594 nm.

[7] = target: T3, Endonuclease 8-like 2 (Homo sapiens) (UniProt Q969S2); conditions: Compound Concentration 10.0 uM, Hit No;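 note: fluorescence at 594 nm reports NEIL2 cutting and release of a quenched double-stranded DNA oligo substrate, reduced signal read as inhibition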
T3 sequence (whole entry): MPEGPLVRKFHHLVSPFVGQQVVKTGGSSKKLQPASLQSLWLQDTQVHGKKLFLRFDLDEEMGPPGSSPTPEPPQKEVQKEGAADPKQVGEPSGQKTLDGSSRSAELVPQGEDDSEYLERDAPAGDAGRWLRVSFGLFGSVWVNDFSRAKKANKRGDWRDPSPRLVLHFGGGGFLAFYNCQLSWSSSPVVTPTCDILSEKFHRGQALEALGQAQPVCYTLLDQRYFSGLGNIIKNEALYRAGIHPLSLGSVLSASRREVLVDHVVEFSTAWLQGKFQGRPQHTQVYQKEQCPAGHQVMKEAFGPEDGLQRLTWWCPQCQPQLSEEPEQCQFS
Description: Inhibition of NEIL2 by quantifying inhibition of NEIL2-mediated cleavage and dissociation of quenched duplex DNA oligonucleotides, measured as fluorescence at 594 nm.

[8] = target: Endonuclease 8-like 1 (Homo sapiens) (UniProt Q96FI4); conditions: Compound Concentration 10.0 uM, Hit No;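 note: fluorescence at 594 nm from quenched duplex DNA oligonucleotides released by NEIL1 cleavage and strand separation, reported as reduction of this enzyme activity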
Description: Inhibition of NEIL1 by quantifying inhibition of NEIL1-mediated cleavage and dissociation of quenched duplex DNA oligonucleotides, measured as fluorescence at 594 nm.

[9] = target: T4, Single-strand selective monofunctional uracil DNA glycosylase (Homo sapiens) (UniProt Q53HV7); conditions: Compound Concentration 10.0 uM, Hit No;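 note: enzymatic SMUG1 assay coupled with APE1, reading fluorescence at 594 nm released when a quenched double-stranded DNA oligonucleotide substrate is cleaved and separated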
T4 sequence (whole entry): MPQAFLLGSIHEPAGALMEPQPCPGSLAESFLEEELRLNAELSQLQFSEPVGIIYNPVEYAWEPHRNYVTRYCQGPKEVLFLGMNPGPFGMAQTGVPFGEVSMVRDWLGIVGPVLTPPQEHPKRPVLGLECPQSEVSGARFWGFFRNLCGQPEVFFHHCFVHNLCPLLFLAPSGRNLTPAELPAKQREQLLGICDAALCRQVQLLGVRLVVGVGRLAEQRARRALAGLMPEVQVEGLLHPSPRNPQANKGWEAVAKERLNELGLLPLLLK
Description: Inhibition of SMUG1 by quantifying inhibition of SMUG1-mediated cleavage and dissociation of quenched duplex DNA oligonucleotides, measured as fluorescence at 594 nm. To generate a functional strand incision and increase turn-over this assay is coupled to APE1.

Sequence of N-glycosylase/DNA lyase (Homo sapiens) (O15527 whole entry): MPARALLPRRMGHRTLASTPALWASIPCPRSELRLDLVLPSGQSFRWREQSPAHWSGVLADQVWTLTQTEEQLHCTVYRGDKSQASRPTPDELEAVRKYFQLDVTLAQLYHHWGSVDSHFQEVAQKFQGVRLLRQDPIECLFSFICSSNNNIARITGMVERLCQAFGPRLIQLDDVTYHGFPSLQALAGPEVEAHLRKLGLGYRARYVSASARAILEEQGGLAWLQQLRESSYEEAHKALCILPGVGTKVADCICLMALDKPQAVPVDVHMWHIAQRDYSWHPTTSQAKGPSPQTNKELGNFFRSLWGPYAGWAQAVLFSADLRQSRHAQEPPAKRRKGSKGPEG
Sequence of Uracil-DNA glycosylase (Homo sapiens) (P13051 whole entry): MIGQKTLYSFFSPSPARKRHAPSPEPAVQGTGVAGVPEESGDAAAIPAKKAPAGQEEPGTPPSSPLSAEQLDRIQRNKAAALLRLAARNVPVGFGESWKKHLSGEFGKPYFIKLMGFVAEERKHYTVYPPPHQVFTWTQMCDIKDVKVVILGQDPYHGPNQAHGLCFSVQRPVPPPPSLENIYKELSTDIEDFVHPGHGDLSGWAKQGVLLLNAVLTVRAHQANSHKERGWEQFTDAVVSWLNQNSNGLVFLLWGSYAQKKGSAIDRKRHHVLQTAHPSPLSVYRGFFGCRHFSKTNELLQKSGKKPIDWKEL
Sequence of Methyl-CpG-binding domain protein 4 (Homo sapiens) (O95243 whole entry, the tested form may be a part): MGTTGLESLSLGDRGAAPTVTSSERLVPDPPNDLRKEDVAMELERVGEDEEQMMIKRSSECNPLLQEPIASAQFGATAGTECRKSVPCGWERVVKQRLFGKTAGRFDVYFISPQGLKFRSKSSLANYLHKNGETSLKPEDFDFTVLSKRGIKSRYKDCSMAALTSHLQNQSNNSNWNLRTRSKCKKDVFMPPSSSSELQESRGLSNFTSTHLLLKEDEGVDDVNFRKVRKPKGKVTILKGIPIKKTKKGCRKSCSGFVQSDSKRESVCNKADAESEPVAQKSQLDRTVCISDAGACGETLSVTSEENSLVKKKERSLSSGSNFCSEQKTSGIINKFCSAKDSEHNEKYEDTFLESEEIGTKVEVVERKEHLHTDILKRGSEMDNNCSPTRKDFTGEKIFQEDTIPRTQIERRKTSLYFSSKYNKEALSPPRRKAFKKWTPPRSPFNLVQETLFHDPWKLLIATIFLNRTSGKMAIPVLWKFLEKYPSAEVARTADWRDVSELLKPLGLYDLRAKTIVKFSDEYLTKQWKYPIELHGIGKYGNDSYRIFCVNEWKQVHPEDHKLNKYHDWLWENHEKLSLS
Sequence of Endonuclease 8-like 1 (Homo sapiens) (Q96FI4 whole entry): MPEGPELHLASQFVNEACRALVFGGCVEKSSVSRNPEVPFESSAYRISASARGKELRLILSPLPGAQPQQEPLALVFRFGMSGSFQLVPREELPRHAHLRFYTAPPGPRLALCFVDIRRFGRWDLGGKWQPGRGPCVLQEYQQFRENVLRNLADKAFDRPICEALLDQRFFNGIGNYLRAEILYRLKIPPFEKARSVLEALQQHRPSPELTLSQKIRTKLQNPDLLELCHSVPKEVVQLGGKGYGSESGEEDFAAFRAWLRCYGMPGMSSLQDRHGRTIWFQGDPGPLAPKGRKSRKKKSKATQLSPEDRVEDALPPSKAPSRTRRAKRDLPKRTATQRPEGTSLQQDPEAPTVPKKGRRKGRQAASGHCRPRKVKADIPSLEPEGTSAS
Sequence of G/T mismatch-specific thymine DNA glycosylase (Homo sapiens) (Q13569 whole entry, the tested form may be a part): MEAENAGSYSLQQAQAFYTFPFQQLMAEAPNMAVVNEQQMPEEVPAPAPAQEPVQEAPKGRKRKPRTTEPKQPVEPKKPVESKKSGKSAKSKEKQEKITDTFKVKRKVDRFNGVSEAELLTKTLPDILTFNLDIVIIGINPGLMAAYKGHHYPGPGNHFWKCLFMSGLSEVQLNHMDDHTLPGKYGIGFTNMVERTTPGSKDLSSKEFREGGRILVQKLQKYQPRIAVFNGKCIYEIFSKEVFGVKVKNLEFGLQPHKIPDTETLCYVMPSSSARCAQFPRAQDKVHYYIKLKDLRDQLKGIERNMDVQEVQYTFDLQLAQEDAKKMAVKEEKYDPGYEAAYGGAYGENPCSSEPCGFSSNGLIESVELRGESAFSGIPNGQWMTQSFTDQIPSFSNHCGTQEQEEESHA

| Compound | inhibition [1] | inhibition [2] | inhibition [3] | inhibition [4] | inhibition ([5]; Hit No) | inhibition [6] | inhibition [7] | inhibition [8] | inhibition [9] | inhibition ([5]; Hit Yes) |
| --- | --- | --- | --- | --- | --- | --- | --- | --- | --- | --- |
| c1ccc(N2CCN(Cc3nc4ccccc4[nH]3)CC2)nc1 | 2.22% | 29.5% | 29.2% | -4.15% | -5.49% | 0.934% |  |  |  |  |
| CC(C)(C)c1ccc2c(c1)CC[C@H]2NC(=O)Nc1cccc2[nH]ncc12 | -7.76% | -8.31% |  | -4.28% | -2.36% | 3.04% | -4.17% | 7.86% | 11.7% |  |
| CN1CCN(c2cc(-c3ccccc3)nc(N)n2)CC1 | -4.71% | 1.13% | -3.57% | -9.1% |  | 9.99% | 7% | -2.28% |  |  |
| Cc1nc(C#Cc2ccnc(Cl)c2)c(C)n1-c1ccc(OC(F)(F)F)cc1 | 14% | 20.9% |  | -8.09% | -0.162% | 7.05% | 5.26% | -9.4% | 5% |  |
| CSCC[C@H](NC(=O)[C@H](Cc1ccccc1)NC(=O)[C@H](Cc1c[nH]cn1)NC(=O)CNC(=O)[C@@H](NC(=O)[C@H](C)NC(=O)[C@H](Cc1c[nH]c2ccccc12)NC(=O)[C@H](CC(C)C)NC(=O)[C@H](CC(N)=O)NC(=O)CN)[C@@H](C)O)C(N)=O | 11.4% | -7.68% | -1.83% | -8.29% |  | 8.82% | -6.21% | 10.5% |  |  |
| COc1ccc(CN(CCN(C)C)c2ccccn2)cc1 | 4.88% | 2.93% | -9.78% |  | -6.42% | 21.7% | -3.23% | 2.61% |  |  |
| CC#CC(=O)N1CCC[C@H]1c1nc(-c2ccc(C(=O)Nc3ccccn3)cc2)c2c(N)nccn12 | 0.794% | 55.9% | -0.914% | 4.65% | 1.98% | -7.58% |  |  |  |  |
| N[C@@H](Cc1cc(I)c(Oc2ccc(O)c(I)c2)c(I)c1)C(=O)O | 10.3% | 102% | 68.9% | 5.16% | 4.51% | -3.92% |  | -7.26% |  |  |
| O=C(O)c1cc(-c2ccc(C3CCNCC3)cc2)c2ccc(-c3ccc(C(F)(F)F)cc3)cc2c1 | 10.9% | 20.1% |  | 0.968% | -4.86% | 2.15% | 1.86% | -1.45% | -1.19% |  |
| Clc1ccc(OC[C@H]2CCN2)cn1 | -6.13% |  | -2.21% | -3.96% | -5.75% | 5.52% | -6.72% | -0.584% |  |  |
| CCCCC(=O)N(Cc1ccc(-c2ccccc2-c2nnn[nH]2)cc1)[C@H](C(=O)O)C(C)C | 34.3% | 0.584% | -9.61% |  | -4.35% | 1.92% | 1.76% | 0.537% |  |  |
| N#Cc1c(N)nc(SCc2csc(-c3ccc(Cl)cc3)n2)c(C#N)c1-c1ccc(OCCO)cc1 | 7.45% | 6.03% | -6.16% | -1.02% |  | 4.7% |  |  |  | 55.1% |
| OCCn1cc(-c2cnc3nnn(Cc4ccc5ncccc5c4)c3n2)cn1 | 0.369% | 49.5% |  | -1.44% | -5.86% | -9.68% | -5.15% | 2.52% | 18.6% |  |
| CS(=O)(=O)NC[C@H]1CC[C@H](Nc2nc3c(s2)CCSc2ccccc2-3)CC1 | -5.74% | 2.85% |  | -8.36% | -8.83% | 34.9% | 8.25% | -5.25% | -4.83% |  |
